The text below walks through data of the METLIN SMRT retention time set (Domingo-Almenara et al. 2019).

This data set in a line: gradient 5% acetonitrile 3 min, to 50% in 2 min, to 85% in 15 min, held 3 min, 100 µL/min. As to conditions: column: Zorbax Extend-C18 2.1 x 50 mm; eluents: water / acetonitrile, 0.1% formic acid. The method in brief:
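Pure standards were analyzed in mixtures of ~100 molecules using HPLC coupled to a quadrupole time-of-flight mass spectrometer, in both positive and negative ionization mode. Separation used a Zorbax Extend-C18 column (2.1 × 50 mm, 1.8 μm) at 100 μL/min, with water and acetonitrile each containing 0.1% formic acid. Dead and dwell volumes were 40 μL and 900 μL, and data were collected over 3 months. Retention time was read from computationally picked adduct peaks, each inspected manually.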
`COc1cc(Nc2ncc3c(n2)-c2ccc(Cl)cc2C(c2c(F)cccc2OC)=NC3)ccc1C(=O)O` displayed an RP-LC retention time of 919 s.
The compound `Cc1ccc(C)c(N2CCN(c3ccc(-c4nc(-c5cccc(F)c5)no4)cn3)CC2)c1` displayed an RP-LC retention time of 602 s.
Compound `CC(C)NC(=O)C1CCCN(C(=O)Nc2ccc(NC(=O)Nc3ccccc3F)cc2)C1` (centres undefined) came in with an RP-LC retention time of 735 s.
As for `Cc1cc(NC(=O)Cn2cnc(-c3cccs3)cc2=O)sn1`, the RP-LC retention time was determined as 654 s.
In the case of `COc1ccc(C)cc1Nc1nc(N)nc(CN2CCN(c3ccccn3)CC2)n1`, the RP-LC retention time is 606 s.
In the case of `O=C(Cc1cccc(Cl)c1)N1[C@H]2CC[C@@H]1c1cnc(-c3ccccc3)nc1C2`, the RP-LC retention time is 990 s.
`COc1ccc(-c2c(C)noc2NC(C)=O)cc1S(=O)(=O)Nc1ccccc1` returned an RP-LC retention time of 721 s.
As to `COc1ccc(OC)c(C(O)CN2CCN(c3cc(C)ccc3C)CC2)c1` (centres undefined), the RP-LC retention time worked out at 758 s.
For `COc1ccc(Cl)cc1NC(=O)CSc1nc2nc(C)cc(C)n2n1` the value was 856 s.
As to `COc1ccc(N2CCN(c3ccc4cc(S(=O)(=O)N5CCCC5)ccc4n3)CC2)cc1`, the RP-LC retention time worked out at 855 s.
The compound `CCn1cc(CCNC(=O)NC)c2cccnc21` registered an RP-LC retention time of 561 s.
The result for `Cc1cccc(C)c1NC(=O)Cn1c(=O)nc(N2CCC(C)CC2)c2ccccc21` reads 819 s; that for `COc1ccc(N2CC(C(=O)N3CCC(C(=O)Nc4nc(C)cs4)CC3)CC2=O)cc1` (centres undefined), 680 s; that for `COc1ccc(Cl)cc1-c1nc(C2CC(=O)N(c3ccc(F)cc3)C2)no1` (centres undefined), 1030 s.
The result for `O=c1ccc(-c2nc(-c3ccc(F)cc3)no2)nn1Cc1cc(F)cc(F)c1` reads 1110 s; that for `Cc1ccc(C)c(-c2csc(Cc3nc(-c4ccc5c(c4)OCO5)no3)n2)c1`, 1260 s; that for `Cc1ccc2[nH]cc(CCN3CC(C(=O)Nc4ccc5c(c4)OCO5)CC3=O)c2c1` (centres undefined), 783 s.
For `CC(C)CC(=O)Nc1ccc2c(c1)nc(CN1CCN(C(=O)c3ccco3)CC1)n2C` the value was 620 s.
`O=C(Nc1cnc(N2CCCC2)nc1)c1cccc(Cl)c1` came in with an RP-LC retention time of 765 s.
`O=C(NCCc1ccc(Cl)cc1)C(=O)Nc1ccon1` yielded an RP-LC retention time of 772 s.
For `CC(C)CNC(=O)c1ccc(CN2CCN(Cc3ccc(F)cc3)C(=O)C2=O)cc1` the value was 732 s.
The result for `CCCCC(C=O)NC(=O)[C@H](CC(C)C)NC(=O)OCc1ccccc1` (some centres undefined) reads 970 s; that for `NS(=O)(=O)C#Cc1ccccc1`, 729 s.
For `COC(=O)c1cccc(NC(=O)NC(C(=O)N2CCc3ccccc32)c2ccccc2)c1` (centres undefined), the RP-LC retention time was 1030 s.
As to `CN(C)C(=O)c1ccc2c(c1)nc(CN1CCN(C(=O)NC3CCCCC3)CC1)n2C`, the RP-LC retention time worked out at 565 s.
`Cc1ccc(CN2C[C@@H](CO)[C@H](c3nc(C)no3)C2)cc1` displayed an RP-LC retention time of 592 s.
The result for `COC(=O)c1ccc(NC(=O)C2CC(=O)N(CCc3c[nH]c4ccc(F)cc34)C2)cc1` (centres undefined) reads 799 s; that for `O=C(Cn1cc(S(=O)(=O)c2ccccc2)c2ccccc21)NCc1ccc2c(c1)OCO2`, 829 s; that for `COc1ccc(-c2nnc(-c3cc(S(=O)(=O)NC(C)C)ccc3Cl)o2)cc1`, 967 s.
Compound `CCNC(=O)C1CCCN(c2nc3ncn(CC(=O)NCc4ccc5c(c4)OCO5)c(=O)c3s2)C1` (centres undefined) came in with an RP-LC retention time of 640 s.
Consider `O=C1C(c2cccnc2)N(Cc2ccc3c(c2)OCO3)C(=O)CN1c1ccccc1` (centres undefined), for which the RP-LC retention time came to 636 s.
Compound `Cc1cccc(N2CCN(S(=O)(=O)c3cc4n(c3)CCCNC4=O)CC2)c1` showed an RP-LC retention time of 758 s.
The compound `CCCc1noc(-c2ccnc(-n3cnc(C(=O)N4CCCC(C)C4)c3)c2)n1` (centres undefined) displayed an RP-LC retention time of 944 s.
The result for `CSc1cccc(NS(=O)(=O)c2cc3c(s2)CCN(C(=O)C2CC2)C3)c1` reads 860 s.
For `Cc1nn(C)cc1S(=O)(=O)NCCc1c[nH]c2ccccc12` the value was 683 s; for `Cc1ccc(S(=O)(=O)c2ccc(N3CCN(c4ccccn4)CC3)nn2)cc1C`, 657 s; for `Fc1cccc(CN2CCC(N3CC(OCC4CC4)C34CCCCC4)CC2)c1` (centres undefined), 588 s.
For `C1CCc2nc3c(nc2C1)CCCC3`, the RP-LC retention time worked out at 722 s.
For `CC(C)COc1cc(=O)n2c(c1C(=O)N1CCN(c3ccccn3)CC1)CCCCC2` the value was 591 s; for `CC(C)(C)CC(=O)NCCn1c(=O)n(Cc2ccc(F)cc2)c2cccnc21`, 808 s; for `COC(=O)c1c(C)[nH]c(C(=O)N2CCC(CC(=O)NCCN3CCCCC3C)CC2)c1C` (centres undefined), 592 s.
With `Cc1nc(-c2ccc(C(=O)NCc3ccc4c(c3)OCO4)cc2)cs1`, the RP-LC retention time was determined as 844 s.
As to `CNC(=O)C1CCN(c2nc3ccc(-c4ccncc4)nc3s2)CC1`, the RP-LC retention time was 568 s.
The result for `Cn1cc(C2=CCN(S(=O)(=O)c3ccc(F)c(F)c3)CC2)c2cccnc21` reads 981 s; that for `CCc1ccc(NS(=O)(=O)c2cc(-c3nc(C)cs3)cs2)cc1`, 1030 s.
For `CCN1C(=O)COc2ccc(-c3noc(C4CC(=O)N(c5ccc(OC)cc5)C4)n3)cc21` (centres undefined) the value was 842 s; for `CC(=O)N1c2ccc(S(=O)(=O)N3CCCC3)cc2CC1C(=O)NCCc1ccc(C)cc1` (centres undefined), 797 s.
`CCCn1cc(CCNC(=O)c2c(F)cccc2Cl)c2cccnc21` yielded an RP-LC retention time of 764 s.
The result for `OC(CN1CCN(c2cccc(Cl)c2)CC1)c1ccc2c(c1)OCO2` (centres undefined) reads 690 s; that for `Cc1cccc(NC(=O)NCC2CCOCC2)c1C`, 704 s; that for `O=c1[nH]c2ccc(NCc3c(F)cccc3Cl)cc2[nH]1`, 636 s.
With `CC1=C(c2ccc(C)cc2)S(=O)(=O)N=C1N1CCCN(C(=O)Nc2ccccc2)CC1`, the RP-LC retention time amounted to 846 s.
For `Fc1ccc(OCc2cn(C3CN(Cc4ccc(F)cc4F)C3)nn2)cc1` the value was 703 s; for `Cc1cccc(NC(=O)Cn2cnc3nc(N4CCC(C(=O)NC5CC5)CC4)sc3c2=O)c1C`, 693 s.
The compound `O=c1c2sccc2n(Cc2nc(-c3cccc(Br)c3)no2)c(=O)n1-c1ccc(F)cc1` returned an RP-LC retention time of 1080 s.
The result for `Cc1sc2ncnc(N3CCCC(C)C3)c2c1C(=O)Nc1ccc(C(F)(F)F)cc1` (centres undefined) reads 1340 s; that for `Cc1cccc(NC(=O)NC2CCN(C(=O)N3C[C@@H]4C[C@H](C3)[C@H]3CCCC(=O)N3C4)CC2)c1`, 669 s; that for `COc1ccccc1N1CCN(C(=O)c2cccc([N+](=O)[O-])c2)CC1`, 786 s.
For `CCCCn1cc(S(=O)(=O)N2CCN(c3cccc(C)c3)CC2)c2cccnc21` the value was 1220 s.
In turn, `Cc1c(C(=O)NCC(C)C)cnn1-c1cc(-c2nc(C3CC3)no2)ccn1` displayed an RP-LC retention time of 969 s.
The result for `Cc1cccn2cc(C(=O)NCc3ccc4c(c3)OCO4)nc12` reads 679 s.
The compound `O=C(COc1ccccc1-c1nc(-c2ccccc2Cl)no1)NCc1ccco1` came in with an RP-LC retention time of 1060 s.
The result for `COCc1c(C(=O)O)nnn1-c1ccc2c(c1)OCO2` reads 648 s.
The result for `O=C(NCCCn1ccnc1)C(=O)NC1CCCCC1` reads 545 s; that for `CCC1(C(=O)NCc2ccc(C)cc2)CCCCC(=O)N1` (centres undefined), 707 s; that for `COCc1c(C(=O)O)nnn1Cc1ccc(OC)c(F)c1`, 658 s.
The result for `Cc1cc(C)c2c(=O)n(Cc3nc(-c4ccccc4)oc3C)c(=O)n(Cc3ccco3)c2n1` reads 1380 s; that for `COc1ncccc1CNC(=O)CCc1c(C)nn(C)c1C`, 580 s; that for `CCn1cc(S(=O)(=O)CC(=O)Nc2ccc3c(c2)OCO3)c2ccccc21`, 754 s.
For the compound `COc1cc(-c2noc(CN3C(=O)COc4cc(C)ccc43)n2)cc(OC)c1OC`, the RP-LC retention time came out at 974 s.
With `O=C(NCC1CCN(Cc2ccccc2)CC1)C(=O)Nc1ccc(OC(F)(F)F)cc1`, the RP-LC retention time was 626 s.
Regarding `CCN1C(=O)c2cccnc2Sc2cc(C(=O)NCc3ccccc3F)ccc21`, the RP-LC retention time turned out to be 803 s.
The result for `CCOC(=O)Nc1ccc2nc(N3CCCCCC3)sc2c1` reads 798 s; that for `Cc1cccc(CNC(=O)c2cc3n(n2)CC(C)(C(=O)NC2CCCC2)N(C)C3=O)c1` (centres undefined), 731 s; that for `COC(=O)c1ccc(NC(=O)c2cc(C(C)(C)C)n3nccc3n2)cc1`, 865 s.
The result for `COC(=O)c1cccc(NC(=O)C2CCCN(c3nnc4ccc(Cl)cn34)C2)c1` (centres undefined) reads 735 s.
Regarding `O=C(N[C@H]1C[C@@H]2C[C@H]1N(C(=O)c1cccc(Cl)c1)C2)c1ccccc1`, the RP-LC retention time was 748 s.
In the case of `CCNc1nc(C)cc(N2CCN(C(=O)Nc3cccc(Cl)c3)CC2)n1`, the RP-LC retention time was 695 s.
For `Cc1cccc(Cc2c(C)nc3c(C(=O)O)cnn3c2C)c1` the value was 788 s.
